Data from publication PMC10683025, “Discovery of a Hydroxylamine-Based Brain-Penetrant EGFR Inhibitor for Metastatic Non-Small-Cell Lung Cancer” (Journal of Medicinal Chemistry, 2023).
“Also recorded” adds a separate entry of the source. Like-named read-outs stand apart in the source and are kept apart here.

Key:
[1] = target: T1, ACVR1 (Homo sapiens, UniProt Q04771); experiment: KINOMEScan; type: binding; details: ACVR1, 1 µM; read-out: Percent Control
T1 construct: purchased Eurofins DiscoverX
T1 sequence (Q04771 21-509): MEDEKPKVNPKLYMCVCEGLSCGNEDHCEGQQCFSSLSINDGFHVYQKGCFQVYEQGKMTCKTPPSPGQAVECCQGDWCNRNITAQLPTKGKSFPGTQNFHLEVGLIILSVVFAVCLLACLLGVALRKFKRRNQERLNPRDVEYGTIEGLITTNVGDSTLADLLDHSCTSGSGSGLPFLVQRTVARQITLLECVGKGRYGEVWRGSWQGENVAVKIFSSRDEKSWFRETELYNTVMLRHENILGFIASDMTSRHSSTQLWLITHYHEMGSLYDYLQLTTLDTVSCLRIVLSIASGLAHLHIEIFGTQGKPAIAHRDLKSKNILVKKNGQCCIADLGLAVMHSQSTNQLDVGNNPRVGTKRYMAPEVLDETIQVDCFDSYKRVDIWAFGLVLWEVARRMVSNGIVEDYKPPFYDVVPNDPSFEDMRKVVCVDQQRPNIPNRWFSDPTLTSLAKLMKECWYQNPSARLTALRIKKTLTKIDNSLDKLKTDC
From the text: (§2) Percent control was mapped onto the kinome tree using TREEspot.

[2] = target: T2, BMPR2 (Homo sapiens, UniProt Q13873); experiment: KINOMEScan; type: binding; details: BMPR2, 1 µM; read-out: Percent Control
T2 construct: purchased Eurofins DiscoverX (KINOMEscan)
T2 sequence (Q13873 27-1038): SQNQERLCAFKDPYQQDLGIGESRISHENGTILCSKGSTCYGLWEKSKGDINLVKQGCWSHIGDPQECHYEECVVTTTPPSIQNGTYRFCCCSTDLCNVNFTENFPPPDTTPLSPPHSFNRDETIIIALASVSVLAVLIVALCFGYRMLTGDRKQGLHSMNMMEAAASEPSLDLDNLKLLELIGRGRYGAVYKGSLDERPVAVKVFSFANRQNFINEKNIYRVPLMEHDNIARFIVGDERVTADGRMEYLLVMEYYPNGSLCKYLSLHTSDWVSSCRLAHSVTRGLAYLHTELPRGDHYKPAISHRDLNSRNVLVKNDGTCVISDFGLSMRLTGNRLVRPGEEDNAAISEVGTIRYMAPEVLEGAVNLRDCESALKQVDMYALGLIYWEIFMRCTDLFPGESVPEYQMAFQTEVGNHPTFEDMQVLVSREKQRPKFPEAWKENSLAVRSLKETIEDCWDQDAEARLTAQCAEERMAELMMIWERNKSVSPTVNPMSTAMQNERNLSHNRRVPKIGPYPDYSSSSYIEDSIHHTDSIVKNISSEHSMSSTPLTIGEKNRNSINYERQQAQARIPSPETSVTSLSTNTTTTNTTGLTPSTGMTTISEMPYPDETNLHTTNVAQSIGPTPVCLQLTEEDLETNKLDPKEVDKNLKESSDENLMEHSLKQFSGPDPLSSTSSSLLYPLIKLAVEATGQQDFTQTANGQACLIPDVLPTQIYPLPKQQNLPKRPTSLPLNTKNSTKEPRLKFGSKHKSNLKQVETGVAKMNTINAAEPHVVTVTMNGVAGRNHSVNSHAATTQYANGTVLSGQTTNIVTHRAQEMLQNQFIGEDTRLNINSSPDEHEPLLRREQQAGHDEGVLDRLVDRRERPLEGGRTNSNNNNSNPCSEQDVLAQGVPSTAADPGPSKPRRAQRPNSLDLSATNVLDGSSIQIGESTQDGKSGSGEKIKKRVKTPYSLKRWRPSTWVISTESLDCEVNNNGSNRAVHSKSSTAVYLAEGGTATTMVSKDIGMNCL
From the text: as §2

[3] = target: T3, YANK3 (Homo sapiens, UniProt Q86UX6); experiment: KINOMEScan; type: binding; details: YANK3, 1 µM; read-out: Percent Control
T3 construct: purchased Eurofins DiscoverX (KINOMEScan service)

[4] = target: T4, BRK (Homo sapiens, UniProt Q13882); experiment: KINOMEScan; type: binding; details: read-out: Percent Control
T4 construct: purchased Eurofins DiscoverX (KINOMEscan)
T4 sequence (Q13882 whole entry): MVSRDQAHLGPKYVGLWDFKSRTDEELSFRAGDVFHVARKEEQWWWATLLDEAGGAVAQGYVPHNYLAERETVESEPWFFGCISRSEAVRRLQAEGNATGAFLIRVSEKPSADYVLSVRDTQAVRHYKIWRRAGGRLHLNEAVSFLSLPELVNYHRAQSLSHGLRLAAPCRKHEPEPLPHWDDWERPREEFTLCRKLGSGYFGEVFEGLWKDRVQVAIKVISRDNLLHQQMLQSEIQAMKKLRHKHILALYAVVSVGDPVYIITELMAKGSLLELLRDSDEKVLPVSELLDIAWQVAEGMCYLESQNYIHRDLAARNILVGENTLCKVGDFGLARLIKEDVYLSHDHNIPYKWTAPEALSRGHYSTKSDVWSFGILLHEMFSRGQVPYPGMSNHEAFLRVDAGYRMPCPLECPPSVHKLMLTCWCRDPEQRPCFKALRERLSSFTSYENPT
From the text: as §2

[5] = target: T5, AXL (Homo sapiens, UniProt P30530); experiment: KINOMEScan; type: binding; details: read-out: Percent Control
T5 construct: purchased Eurofins DiscoverX (KINOMEscan)
T5 sequence (P30530 26-894): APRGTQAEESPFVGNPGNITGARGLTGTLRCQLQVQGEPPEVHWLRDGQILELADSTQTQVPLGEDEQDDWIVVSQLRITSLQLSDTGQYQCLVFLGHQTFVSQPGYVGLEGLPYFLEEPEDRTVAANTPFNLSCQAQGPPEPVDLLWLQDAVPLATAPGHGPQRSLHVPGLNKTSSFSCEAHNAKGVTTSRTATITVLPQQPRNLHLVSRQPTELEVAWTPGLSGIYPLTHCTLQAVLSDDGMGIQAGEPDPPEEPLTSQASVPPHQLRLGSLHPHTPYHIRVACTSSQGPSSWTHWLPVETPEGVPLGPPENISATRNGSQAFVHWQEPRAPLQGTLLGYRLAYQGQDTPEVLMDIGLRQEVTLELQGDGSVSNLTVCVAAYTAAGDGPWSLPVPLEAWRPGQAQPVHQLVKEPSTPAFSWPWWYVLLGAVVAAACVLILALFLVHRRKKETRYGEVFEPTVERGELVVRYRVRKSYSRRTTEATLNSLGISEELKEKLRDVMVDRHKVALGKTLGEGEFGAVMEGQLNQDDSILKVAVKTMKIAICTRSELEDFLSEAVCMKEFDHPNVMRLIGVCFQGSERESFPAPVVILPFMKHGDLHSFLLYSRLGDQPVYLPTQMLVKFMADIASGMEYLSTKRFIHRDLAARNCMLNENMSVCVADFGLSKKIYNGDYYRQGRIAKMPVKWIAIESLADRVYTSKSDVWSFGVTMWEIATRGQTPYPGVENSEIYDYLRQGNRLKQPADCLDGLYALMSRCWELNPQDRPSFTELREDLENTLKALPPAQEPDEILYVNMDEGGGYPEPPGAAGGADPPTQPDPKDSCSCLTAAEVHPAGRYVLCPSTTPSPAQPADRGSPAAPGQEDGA
From the text: as §2

[6] = target: CYP2D6 (Homo sapiens, UniProt P10635); experiment: CYP2D6 time-dependent inhibition in human liver microsomes; details: for Inhibition percentage(%) at Top conc. / IC50: liver microsomes; for IC50: read-out: CYP2D6 IC50
CYP2D6, sequence (P10635 whole entry): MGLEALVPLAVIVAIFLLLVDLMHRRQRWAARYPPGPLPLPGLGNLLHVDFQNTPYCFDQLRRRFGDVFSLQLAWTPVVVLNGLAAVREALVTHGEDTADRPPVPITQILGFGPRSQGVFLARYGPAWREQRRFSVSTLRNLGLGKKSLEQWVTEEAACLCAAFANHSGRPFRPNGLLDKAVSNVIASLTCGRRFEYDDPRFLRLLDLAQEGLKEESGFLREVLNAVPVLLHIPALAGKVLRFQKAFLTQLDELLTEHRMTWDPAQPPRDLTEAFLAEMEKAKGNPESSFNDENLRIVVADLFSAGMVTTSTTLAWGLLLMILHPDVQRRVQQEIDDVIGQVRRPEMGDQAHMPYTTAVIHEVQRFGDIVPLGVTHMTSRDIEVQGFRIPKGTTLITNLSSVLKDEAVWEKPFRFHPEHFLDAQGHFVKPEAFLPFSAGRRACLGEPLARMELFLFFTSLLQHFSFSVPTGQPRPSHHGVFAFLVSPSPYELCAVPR

[7] = target: T6, ABL1(M351T)-phosphorylated (Homo sapiens, UniProt P00519, M351T); experiment: KINOMEScan; type: binding; details: read-out: Percent Control
T6 construct: purchased Eurofins DiscoverX
From the text: as §2

[8] = target: T7, PIKFYVE (Homo sapiens, UniProt Q9Y2I7); experiment: KINOMEScan; type: binding; details: read-out: Percent Control
T7 construct: purchased Eurofins DiscoverX (KINOMEScan service)

[9] = target: T8, EGFRwt (Homo sapiens, UniProt P00533); experiment: KINOMEScan; type: binding; details: read-out: Percent Control
T8 construct: purchased Eurofins DiscoverX (contract assay)
From the text: as §2

[10] = target: T9, CYP2C19 (Homo sapiens, UniProt P33261); experiment: CYP450 inhibition in human liver microsomes; type: in vitro ADME
T9 construct: tissue BD Gentest; host or cells: pooled human liver microsomes
T9 sequence (P33261 whole entry): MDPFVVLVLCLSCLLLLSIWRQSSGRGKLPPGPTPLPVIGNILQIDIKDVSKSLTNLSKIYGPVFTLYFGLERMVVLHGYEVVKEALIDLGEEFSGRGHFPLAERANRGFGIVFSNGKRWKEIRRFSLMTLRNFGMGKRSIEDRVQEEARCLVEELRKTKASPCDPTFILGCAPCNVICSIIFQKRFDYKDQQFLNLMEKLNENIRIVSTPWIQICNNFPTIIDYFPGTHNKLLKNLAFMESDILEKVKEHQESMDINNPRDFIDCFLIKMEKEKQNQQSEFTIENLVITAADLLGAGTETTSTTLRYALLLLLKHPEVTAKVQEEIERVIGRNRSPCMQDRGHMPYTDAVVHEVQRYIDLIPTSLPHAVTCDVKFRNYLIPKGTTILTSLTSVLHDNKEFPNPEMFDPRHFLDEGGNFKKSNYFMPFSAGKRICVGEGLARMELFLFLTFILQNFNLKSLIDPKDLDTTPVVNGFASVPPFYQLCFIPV
Protocol: The activities tested were CYP1A2-mediated phenacetin O-demethylation, CYP2C19-mediated (S)-mephenyotin 4′-hydroxylation, CYP2C9-mediated diclofenac 4′-hydroxylation, CYP2D6-mediated dextromethorphan O-demethylation, and CYP3A4-mediated midazolam 1′-hydroxylation. […] The reactions were initiated by adding NADPH (1 mM final concentration) after a 5 min preincubation, and the assay was run in duplicate (n = 2). Samples were analyzed by ultra-performance liquid chromatography tandem mass spectrometry (UPLC-MS/MS).

[11] = target: BCR-ABLwt (Homo sapiens, UniProt P00519); experiment: KinaseProfiler enzymatic radiometric assay; type: biochemical; details: read-out: Kinase IC50
Protocol: (§1) In vitro kinase activity (inhibitor binding constants (Kd) and biochemical inhibition (IC50’s)) were assessed by Eurofins DiscoverX (Kd determinations) and Eurofins Cerep (biochemical IC50 determinations).

[12] = target: T10, ERBB2 (Homo sapiens, UniProt P04626); experiment: KinaseProfiler enzymatic radiometric assay; type: biochemical; details: read-out: Kinase IC50
T10 construct: purchased Eurofins DiscoverX (contract assay)
Protocol: as §1

[13] = target: T11, DRAK1 (Homo sapiens, UniProt Q9UEE5); experiment: KinaseProfiler enzymatic radiometric assay; type: biochemical; details: read-out: Kinase IC50
T11 construct: purchased Eurofins DiscoverX (contract assay)
T11 sequence (Q9UEE5 1-414): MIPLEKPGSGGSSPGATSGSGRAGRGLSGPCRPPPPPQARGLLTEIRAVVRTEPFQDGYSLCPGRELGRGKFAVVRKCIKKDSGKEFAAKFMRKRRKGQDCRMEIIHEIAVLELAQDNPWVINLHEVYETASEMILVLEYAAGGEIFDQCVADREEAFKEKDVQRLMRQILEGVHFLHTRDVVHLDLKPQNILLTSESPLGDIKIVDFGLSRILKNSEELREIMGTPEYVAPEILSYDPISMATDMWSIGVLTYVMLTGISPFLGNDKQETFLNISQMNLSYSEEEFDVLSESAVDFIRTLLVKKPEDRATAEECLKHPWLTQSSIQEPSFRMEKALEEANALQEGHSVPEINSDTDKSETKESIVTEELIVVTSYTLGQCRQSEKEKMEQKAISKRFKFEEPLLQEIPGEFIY
Protocol: as §1

[14] = target: T12, LYN (Homo sapiens, UniProt P07948); experiment: KINOMEScan; type: binding; details: read-out: Percent Control
T12 construct: purchased Eurofins DiscoverX (contract assay)
From the text: as §2

[15] = target: T13, ABL1(E255K)-phosphorylated (Homo sapiens, UniProt P00519, E255K); experiment: KINOMEScan; type: binding; details: read-out: Percent Control
T13 construct: purchased Eurofins DiscoverX
From the text: as §2

[16] = target: T14, AKT2 (Homo sapiens, UniProt P31751); experiment: KINOMEScan; type: binding; details: AKT2, 1 µM; read-out: Percent Control
T14 construct: purchased Eurofins DiscoverX (KINOMEscan)
T14 sequence (P31751 whole entry): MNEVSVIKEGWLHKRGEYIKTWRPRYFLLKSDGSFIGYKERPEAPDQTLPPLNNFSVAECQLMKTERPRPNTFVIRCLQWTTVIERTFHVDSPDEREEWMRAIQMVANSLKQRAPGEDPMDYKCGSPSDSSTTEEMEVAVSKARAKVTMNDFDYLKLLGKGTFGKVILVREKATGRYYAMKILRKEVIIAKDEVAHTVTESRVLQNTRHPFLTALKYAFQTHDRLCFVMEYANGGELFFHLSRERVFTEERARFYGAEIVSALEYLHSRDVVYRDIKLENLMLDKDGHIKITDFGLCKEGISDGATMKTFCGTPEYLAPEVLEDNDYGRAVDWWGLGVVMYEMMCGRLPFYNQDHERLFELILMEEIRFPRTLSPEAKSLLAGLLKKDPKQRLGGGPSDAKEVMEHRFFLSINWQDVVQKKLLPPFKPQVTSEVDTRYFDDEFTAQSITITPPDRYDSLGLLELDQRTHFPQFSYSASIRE
From the text: as §2

[17] = target: T15, YSK1 (Homo sapiens, UniProt O00506); experiment: KINOMEScan; type: binding; details: YSK1, 1 µM; read-out: Percent Control
T15 construct: purchased Eurofins DiscoverX (KINOMEScan service)
T15 sequence (O00506 whole entry): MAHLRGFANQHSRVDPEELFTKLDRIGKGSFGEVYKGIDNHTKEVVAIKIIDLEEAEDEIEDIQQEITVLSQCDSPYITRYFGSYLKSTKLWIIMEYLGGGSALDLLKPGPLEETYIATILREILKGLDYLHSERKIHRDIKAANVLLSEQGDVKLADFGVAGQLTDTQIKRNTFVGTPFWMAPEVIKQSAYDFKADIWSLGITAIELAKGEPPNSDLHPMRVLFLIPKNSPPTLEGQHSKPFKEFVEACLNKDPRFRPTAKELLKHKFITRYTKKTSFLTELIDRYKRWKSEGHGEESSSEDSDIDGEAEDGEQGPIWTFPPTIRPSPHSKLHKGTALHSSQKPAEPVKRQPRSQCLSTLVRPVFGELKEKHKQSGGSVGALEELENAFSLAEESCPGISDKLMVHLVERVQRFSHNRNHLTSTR

[18] = target: T16, ASK2 (Homo sapiens, UniProt O95382); experiment: KINOMEScan; type: binding; details: ASK2, 1 µM; read-out: Percent Control
T16 construct: purchased Eurofins DiscoverX (KINOMEscan)

[19] = target: T17, BLK (Homo sapiens, UniProt P51451); experiment: KINOMEScan; type: binding; details: read-out: Percent Control
T17 construct: purchased Eurofins DiscoverX (KINOMEscan)
From the text: as §2

[20] = target: T18, AURKC (Homo sapiens, UniProt Q9UQB9); experiment: KINOMEScan; type: binding; details: read-out: Percent Control
T18 construct: purchased Eurofins DiscoverX (KINOMEscan)
T18 sequence (Q9UQB9 whole entry): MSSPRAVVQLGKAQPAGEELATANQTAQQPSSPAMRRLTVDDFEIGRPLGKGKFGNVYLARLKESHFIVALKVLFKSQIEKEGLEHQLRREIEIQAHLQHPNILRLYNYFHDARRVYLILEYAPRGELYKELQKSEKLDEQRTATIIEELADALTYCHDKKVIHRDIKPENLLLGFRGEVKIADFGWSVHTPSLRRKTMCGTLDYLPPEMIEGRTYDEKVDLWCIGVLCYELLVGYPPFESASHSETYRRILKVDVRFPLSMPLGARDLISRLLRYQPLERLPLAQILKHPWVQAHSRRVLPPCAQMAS

COc1cc2ncnc(Nc3cccc(Cl)c3F)c2cc1OCCON1CCN(C)CC1 [Compound 9, N-(3-Chloro-2-fluorophenyl)-7-methoxy-6-(2-((4-methylpiperazin-1-yl)oxy)ethoxy)quinazolin-4-amine]
remaining binding at 1 µM [1]: 100%
remaining binding at 1 µM [2]: 99%
remaining binding at 1 µM [3]: 86%
remaining binding at 1 µM [4]: 94%
remaining binding at 1 µM [5]: 100%
CYP 2D6 TDI ([6]; IC50-shift, human liver microsomes and primary human hepatocytes): Negative; also recorded: not to be time-dependent
Inhibition percentage(%) at Top conc. ([6]; 0 min): 78.15%
Inhibition percentage(%) at Top conc. ([6]; 30 min with NADPH): 74.73%
Inhibition percentage(%) at Top conc. ([6]; 30 min without NADPH): 78.78%
IC50 ([6]; 30 min with NADPH): 1820 nM
IC50 ([6]; 30 min without NADPH): 1160 nM
IC50 ([6]; pre-incubation 0 min): 1050 nM
remaining binding at 1 µM [7]: 12%
remaining binding at 1 µM [8]: 1.6%
remaining binding at 1 µM [9]: 0.3%
IC50 [10]: > 30000 nM
IC50 [11]: 976 nM
IC50 [12]: 12 nM
IC50 [13]: 1030 nM
remaining binding at 1 µM [14]: 7.4%
remaining binding at 1 µM [15]: 6.4%
remaining binding at 1 µM [16]: 91%
remaining binding at 1 µM [17]: 94%
remaining binding at 1 µM [18]: 85%
remaining binding at 1 µM [19]: 16%
remaining binding at 1 µM [20]: 82%
